Like-named read-outs stand apart in the source and are kept apart here.
Legend:
[1] = Plasma protein binding, equilibrium dialysis, human; format: in vitro ADME; details: plasma (10% plasma, extrapolated to 100% plasma), 18 hours at 37° C.
Description: Protein binding is measured using the equilibrium dialysis technique. Compound is added to 10% plasma giving a concentration of 10 μM and dialysed with isotonic buffer for 18 hours at 37° C. The plasma and buffer solutions are analysed using generic LC UV/MS and the first apparent binding constant for the compound derived. The binding constant is then used to determine the % free in 100% plasma
The percentage of plasma bound/unbound fraction preparation was calculated as follows
[formula] [formula] where, • Tc=Total plasma concentration was determined by the calculated concentration on the plasma side of the chamber • Fc=[…] was determined by the calculated concentration on the buffer side of the chamber • To=Total compound concentration determined before analysis.

[2] = Pharmacokinetic study in rats; format: in vivo, male Sprague-Dawley (SD) rats; details: for Vd / clearance / half-life / Cmax / Tmax / bioavailability: male, Sprague-Dawley, plasma; for Vd: read-out: Vss; for Cmax / Tmax: p.o; for Cmax: read-out: Cmax (head Co*/); for Tmax: read-out: Tmax (head Tma); for bioavailability: rat
Description: Intravenous (i.v) and Oral formulations for pharmacokinetic (PK) studies was formulated in different vehicles and excipients to achieve the desirable solubility for intravenous and Oral routes of administration.
Appropriate amount of the test compound was weighed and dissolved in required volume of the vehicles, followed by vertexing for a few seconds to dissolve the compound. Then the solution (or) suspension was sonicated at room temperature for 5 minutes to obtain a visually clear solution and or homogenous suspension. All the formulations were prepared freshly at room temperature before dosing.
The rodent pharmacokinetic studies were carried out in male Sprague-Dawley (SD) rats (8-12 weeks of age, weighing 280±20 g at the time of dosing) and CD1 mice (8-12 weeks of age, weighing 30-35 g body weight at the time of dosing) to estimate the plasma clearance, volume of distribution and terminal half-life, area under curve (AUC) and peak plasma concentration (Cmax) and time of peak plasma concentration (Tmax) following intravenous and oral routes of administration. The detailed experimental design is described in the Table 8 below.
Rats were anaesthetized by Isoflurane anaesthesia. The jugular and femoral veins of rat were cannulated, and the study was performed 48 h post cannulation. At each time point about 100 μL, of rat blood was collected from the jugular vein into a labelled microfuge tube containing 200 mM K2EDTA solution (20 μL, per mL of blood) and equivalent volume of heparinized saline was replaced following sample collection. Similarly, 25 μL, of mice blood was collected from the saphenous vein into a labelled microfuge tube containing 200 mM K2EDTA solution
Serial blood sampling method was used for blood collection. Blood samples were collected at pre-dose, 0.25 h, 0.5, 1, 2, 4, 6, 8 and 24-hours post dose. The blood samples were processed to obtain the plasma samples within 30 min of scheduled sampling time. All plasma samples were stored −70° C. until bioanalysis.
Plasma samples were analysed for a fit-for purpose LC-MS/MS method with a lower limit of quantification. The pharmacokinetic parameters were calculated using the non-compartmental analysis tool of validated Phoenix® WinNonlin® software (Certara, USA version 8.4) with linear up and log down method for estimating AUC.
All animals in intravenous (IV bolus) group were under fed state and animals in oral groups were fasted overnight (min 12 hr) before dose administration and food was provided 4 h post dose administration. All animals were received water ad libitum during the study period. The mean (±SD) pharmacokinetic parameters of Example 13, Example 122b & Example 39 following IV bolus and Oral dose administration in Mice/Rat and Dog is provided in Table-9.

[3] = tested on: human Peripheral blood mononuclear cells (PBMCs); test: Cytokine restoration assay in human PBMCs (IL-2, TNF-α) under NECA; format: cell-based; details: PBMC, NECA 5 μM, anti CD3/28 Dynabeads, 48 hours
From the text: The ability of the invention compounds disclosed herein to restore the cytokines (IL-2 and TNF-α) release under adenosine agonist (NECA) environment evaluated using human Peripheral blood mononuclear cells (PBMCs). Peripheral blood was collected from healthy adult individuals in vacutainer tube. Peripheral blood mononuclear cells (PBMCs) were isolated via density gradient centrifugation, which uses Ficoll (Histopaque buffer) combined with short, low-speed centrifugation, to separate different cell populations. Diluted defibrinated blood was layered on a Ficoll and centrifuged at 1800 rpm for 20 minutes at 22° C. Differential migration of cells during centrifugation results in the formation of layers containing different cell types. The bottom layer contains erythrocytes. Remaining cells (i.e., lymphocytes, monocytes, and platelets) that are not dense enough to penetrate the Ficoll media layers (densities of 1.0770 g/ml), forms a buffy coat at the interface between the upper plasma layer and the Ficoll media layer. After carefully collected the buffy coat excess of platelets, Ficoll and plasma were removed by washing it with isotonic sterile phosphate buffered saline (PBS) and resulting cell pellet was resuspended in RPMI media with 5% FBS an P/S. The isolated PBMCs were allowed to be conditioned for an hour at 37° C. in a CO2 incubator. These cells were subsequently used for specific downstream assay. Isolated PBMC (3×10^5 cells/200 μl) were plated in 96 well microtiter plate in RPMI media with 5% FBS in presence of 100 units of penicillin plus 100 μg/ml streptomycin. NECA was added at a final concentration of 5 μM, control wells were maintained without NECA suppression (i.e., no NECA control). The assay plates were incubated at 37° C. for 4 hours in a CO2 incubator. Various concentrations of test compounds were added into respective wells in triplicates. Pre-washed anti CD3/28 Dynabeads (2.5 μL) was added for CD4 and CD8 + T-cell stimulation (to obtain a bead-to-cell ratio of 1:1). The assay plate was incubated at 37° C. in 5% CO2 and 20% ambient O2 maximum for 48 hours. At the end of 48 hours, the activated PBMC were harvested, and culture supernatants were used directly for further analysis. Forty-eight hours post treatment, 15 μL of cell-free supernatant was collected and assayed for secreted IL2 using the human Interleukin 2 (hIL2)—LANCE Ultra Detection Kit (Perkin Elmer). Similarly, level of soluble Tumor Necrosis Factor alpha (TNFα) was determined using human TNFα LANCE Ultra Detection Kit (Perkin Elmer). T-FRET signal was measured with Tecan spark multimode plate reader. Data was analyzed by graph-pad prism9. EC50 s of the compounds of Formula (I) in restoration of cytokine release under adenosine agonist from the human PBMCS are presented in Table 2

[4] = Rat, IV bolus, Table 6, read-out: T1/2 (IV bolus) (converted)
[5] = oral, Rat, Table 6, read-out: % F
[6] = oral, Rat, oral vs IV bolus, doses per compound, read-out: % F (bioavailability)
[7] = read-out: IL-2 restoration EC50
[8] = read-out: TNF-α restoration EC50

Structure (SMILES) | fraction unbound at 18 h, 10 µM [1] | Total CLsystemic in plasma ([2]; Rat, Table 6) [mL/min/kg] | Vd ([2]; intravenous, Rat, Table 6) [L/kg] | half-life [2, 4] [min] | bioavailability [2, 5] [%] | bioavailability [2, 6] [%] | Distribution relative to TBW ([2]; rats & mice) [× TBW] | EC50 [3, 7] [nM] | EC50 [3, 8] [nM] | other results
Cc1cccc(CCNc2nc3c(C)c(C)nn3c(N)c2C#N)n1 [Example 13, 7-amino-5-((2-(6-methylpyridin-2-yl)ethyl)amino)-2,3-dimethylpyrazolo[1,5-a]pyrimidine-6-carbonitrile] | 0.05 | 69 | 1.4 | 24.6 | < 1 | < 5 | 2 | 5.5 | 5.2 | Co (head Co*/) ([2]; Rat, i.v, 3 mg/kg): 2242 ng/m; clearance ([2]; iv, Rat, i.v, 3 mg/kg): 69 ± 9 mL/min/kg; Vd ([2]; iv, Rat, i.v, 3 mg/kg): 1.4 L/kg; half-life ([2]; iv, Rat, i.v, 3 mg/kg, read-out: t1/2 (converted)): 24 min; Cmax ([2]; po, Rat, 10 mg/kg): 4.2 ng/mL; Tmax ([2]; po, Rat, 10 mg/kg): 12 min; bioavailability ([2]; po, Rat, oral vs IV bolus, doses per compound, read-out: % F (bioavailability)): < 1%
CCc1c(C)nn2c(N)c(C#N)c(NCCc3ccn(C4(CO)CC4)n3)nc12 [Example 39, 7-amino-3-ethyl-5-((2-(1-(1-(hydroxymethyl)cyclopropyl)-1H-pyrazol-3-yl)ethyl)amino)-2-methylpyrazolo[1,5-a] pyrimidine-6-carbonitrile] | 0.0913 | 90 | 2.4 | 72 | 27 | 27 | 2 | 4.2 | 2.3 | Co (head Co*/) ([2]; Rat, i.v, 15 mg/kg): 8676 ng/m; clearance ([2]; iv, Rat, i.v, 15 mg/kg): 90 ± 15 mL/min/kg; Vd ([2]; iv, Rat, i.v, 15 mg/kg): 2.4 L/kg; half-life ([2]; iv, Rat, i.v, 15 mg/kg, read-out: t1/2 (converted)): 72 min; Cmax ([2]; po, Rat, 100 mg/kg): 4100 ng/mL; Tmax ([2]; po, Rat, 100 mg/kg): 12 min; Total CL relative to hepatic clearance ([2]; rats & mice): 1.6 ×
CCc1c(C)nn2c(N)c(C#N)c(NCCc3ccn(C4COCC4CO)n3)nc12 (single isomer, unassigned; (-)) [Example 122b, (−)-7-amino-3-ethyl-5-((2-(1-(4-(hydroxymethyl)tetrahydrofuran-3-yl)-1H-pyrazol-3-yl)ethyl)amino)-2-methyl pyrazolo[1,5-a]pyrimidine-6-carbonitrile] | 0.117 | 78 | 1.6 | 19.8 | 21 |  |  | 1.4 | 1.2 | Total plasma systemic clearance (CL) relative to hepatic blood flow ([2]; Rat, IV bolus): 1.3 ×; Co (head Co*/) ([2]; Rat, i.v, 5 mg/kg): 4169 ng/m; clearance ([2]; iv, Rat, i.v, 5 mg/kg): 78 ± 17 mL/min/kg; Vd ([2]; iv, Rat, i.v, 5 mg/kg): 1.58 L/kg; half-life ([2]; iv, Rat, i.v, 5 mg/kg, read-out: t1/2 (converted)): 18 min; Cmax ([2]; po, Rat, 30 mg/kg): 983 ng/mL; Tmax ([2]; po, Rat, 30 mg/kg): 30 min; bioavailability ([2]; oral, 30 mg/kg, Rat, oral vs IV bolus, doses per compound, read-out: % F (bioavailability)): 21%
